Test results published in patent US6147107A, “Specific inhibition of the P42/44 mitogen activated protein (map) kinase cascade sensitizes tumor cells” (priority 1998, dated 2000).
pEC50: −log10 of the molar value. “Also recorded” adds a separate entry of the source. Read-outs that look alike come from different tables or passages of the source.

Experiments:
HL-60 cells [1] = test: Taxol-mediated apoptosis of HL-60 cells
MEK1 and MEK2 [2] = conditions: general statement on known inhibitors; cited from earlier work
A431 cells [3] = test: TUNEL assay, apoptosis of A431 cells after radiation; type: cell-based, human
Description: The ability of the cells to survive was assessed using TUNEL assays 24 hours after irradiation and the results are depicted in FIG. 4.

HL-60 cells [4] = test: Clonogenicity of HL-60 cells; type: cell-based, human
Description: (§1) FIGS. 9a and 9b. […] HL-60 cells were exposed to ara-C (10 μM) in the absence or presence of aminomethoxyflavone (PD98059; 2.5 μM) for 6 hours. Apoptotic DNA damage and cell death were assessed as described in Methods. […] FIG. 9b.
Determination of Clonogenicity: Pelleted cells were rinsed extensively and prepared for soft-agar cloning. Cells were resuspended in cold PBS and seeded in 35-mm culture plates at a fixed density (400 cell/ml/well) in complete RPMI-1640 medium containing 20% fetal calf serum, 10% 5637-CM, and 0.3% Bacto agar. Cultures were mainatined for 10 to 12 days before formation of colonies (defined as groups of ≥50 cells) was scored.

cancer cells = test: Radiosensitization of cancer cells; type: cell-based; conditions: general statement
p42/44 MAP kinase = test: MAP kinase activity in HL-60 cells (immunoprecipitation, MBP substrate); type: cell-based, human
Description: FIG. 8. […] HL-60 cells were exposed to ara-C (10 μM) in the absence or presence of aminomethoxyflavone (PD98059; 2.5 μM) for 3 hours. MAP kinase activity (p42-ERK1/p44-ERK2) was determined by in vitro assay. In each case, values reflect the mean ±SE of duplicate determinations, and are expressed as a percentage of basal activity present in untreated controls.
(§2) Determination of MAPK Activity: Pelleted cells were rinsed in PBS, repelleted, and flash-frozen. Cell pellets were lysed in 25 mM Hepes, pH 7.4 containing 5 mM EGTA, 5 mM EDTA, supplemented with protease inhibitors (5 mM benzamidine, 1 mM phenylmethylsulfonylfluoride, 1 mg/ml soybean trypsin inhibitor, 40 μg/ml aprotinin, 1 μM microcystin LR) phosphatase inhibitors (0.5 mM trisodium orthovanadate, 0.5 mM tetrasodium pyrophosphate), and containing 0.056% sodium deoxycholate w/v, 1% Triton X-100 v/v, and 0.1% 2-mercaptoethanol v/v. Lysates were clarified by centrifugation at 5,000× g at 4° C. for 5 min. MAPK activity was assayed using MBP as a substrate following immunoprecipitation of p42/44 MAP kinase with protein A/agarose-conjugated antibody/antisera. Preimmune controls were also run to ensure selectivity of substrate phosphorylation. Reaction mixtures consisted of immunoprecipitated enzyme, substrate, and [γ-^32 P] ATP ([…]) in 25 mM Hepes, pH 7.4 containing 15 mM MgCl2, […], 0.01% (v/v) 2-mercaptoethanol, 1 μM […]. Reactions were initiated by the addition of substrate. MAPK reactions were terminated by transfer to p81 filter paper; filters were rinsed repeatedly in 185 mM orhtophosphoric acid, and then dehydrated in acetone. Total radioactivity in filters was determined by liquid scintillometry.
HL-60 cells were exposed to ara-C in the absence or presence of PD98059. Following this treatment, the cells were eveluated for MAP kinase activity, DNA strand breakage, clonogenicity potential and extent of apoptosis.

A431 cells [5] = system: A431 cells
A431 cells [6] = test: [3H]thymidine incorporation into DNA of A431 cells; type: cell-based, human; conditions: PD98059 alone, over 96 hours; not shown
HL-60 cells [7] = test: Apoptosis of HL-60 cells (ara-C); type: cell-based, human
Description: as §1

HL-60 cells [8] = test: DNA strand breakage in HL-60 cells; type: cell-based, human; conditions: ara-C (10 μM) + PD98059 (2.5 μM), 6 hours
Description: as §1
Quantitative Analysis of DNA Damage: The formation and release of DNA fragments and the corresponding breakage of bulk DNA were assessed by bisbenzamide spectrofluorophtometry. To measure intracellular DNA fragments, pelleted cells (4×10^6 cells/pellet in quadruplicate)were resuspended in PBS and lysed by addition of 5 mM Tris-HCl, 30 mM EGTA, 30 mM EDTA, 0.1% Triton X-100, pH 8 (yielding a final density of 10^7 cells,ml) with gentle mechanical agitation. The lysates were centrifuged at 30,000× g at 4° C. for 40 minutes. […] The pellets were discarded and the presence of non-sedimenting DNA fragments in the supernatant from the lysate and medium extracts was quantified following dilution in modified Tris-sodium EGTA buffer (3 mM NaCl, 10 mM Tris-HCl, 1 mM EGTA, pH 8) by spectrofluorophotometry in the presence of Hoechst-33258 (1 μg/ml; μex=365, λem=460). Net fluorescence was directly proportional to the presence of DNA fragments; final values were calculated relative to a highly purified calf thymus DNA calibration standard, and are expressed as ng/μg DNA recovered or released from 10^6 cells. […]

MEK1 and MEK2 [9] = test: Inhibition of Raf-mediated phosphorylation/activation of MEK1/2; type: biochemical
A431 cells [10] = test: Propidium iodide staining (necrosis/cell integrity) of A431 cells after radiation; type: cell-based, human; conditions: PD98059 + 1 Gy; data not shown
[11] = system: p42/44 MAP kinase cascade; test: Inhibition of p42/44 MAP kinase cascade activity in A431 cells; type: cell-based, human; conditions: PD98059, 1 Gy
Description: as §2

[12] = ara-C (10 μM) + PD98059 (2.5 μM), 6 hours

Compound: COc1cccc(-c2cc(=O)c3ccccc3o2)c1N [PD98059, 2'-amino-3'-methoxy-flavone]
- cytotoxicity at 10 µM (HL-60 cells [1]; Homo sapiens, HL-60, 15 h, read-out: apoptotic cells, PD98059 alone): 6 to 7%
- cell death, taxol plus PD98059 (HL-60 cells [1]; taxol 0.5 μM + PD98059 10 μM): 58%
- mode of action at MEK1/2 (MEK1 and MEK2 [2]): bind to MEK1/2 and sterically prevent Raf from binding
- enhancement ratio, co-treatment versus either radiation or PD98059 alone (A431 cells [3]; 5 μM PD98059 + 1 Gy): approximately threefold
- percentage of cells exhibiting double stranded DNA breaks (A431 cells [3]; 5 μM PD98059 + 1 Gy, increased from ~4 to 15): 4-15%
- amount of cell killing compared to either treatment alone (A431 cells [3]; 5 μM PD98059 + single 1 Gy exposure): tripled
- potentiation of cell death (TUNEL) (A431 cells [3]; 5, 10 and 20 μM PD98059 + 1 Gy radiation): large potentiation of cell death
- effect upon the basal levels of cell viability (A431 cells [3]; PD98059 alone, low concentrations, 24 hours): small non-significant detrimental effect
- clonogenic potential (HL-60 cells [4]; [12]): practically nullified
- clonogenic potential, single agent (HL-60 cells [4]; either agent alone): neither alone had this effect
- radiosensitization of cancer cells (cancer cells): all cause radiosensitization of cancer cells
- MAP kinase activity (p42/44 MAP kinase; 2.5 μM PD98059, with or without ara-C (10 μM), 3 hours): Suppression of MAP kinase activity
- suppression of ara-C-related stimulation of MAP kinase (p42/44 MAP kinase; 5 μM PD98059 + ara-C): completely suppresses
- basal MAP kinase activity (p42/44 MAP kinase; 1-100 μM PD98059, acute exposure): pronounced concentration-related decline
- Emax (p42/44 MAP kinase; Homo sapiens, HL-60, 1-100 μM PD98059, read-out: maximal decrease of basal MAP kinase activity): ≥ 65%
- pEC50 (p42/44 MAP kinase; Homo sapiens, HL-60, PD98059, acute exposure, read-out: EC50, decline of basal MAP kinase activity): ≥ 5.30
- cellular proliferation (MTT) (A431 cells [5]; 5, 10 or 20 μM PD98059 + 1 Gy): markedly decreased cellular proliferation
- enhancement ratios (MTT) (A431 cells [5]; PD98059 + 1 Gy): at least threefold
- proliferative rate (MTT) (A431 cells [5]; PD98059 + 1 Gy radiation, 4-8 days): Decreased proliferative rate
- proliferative capacity versus either exposure or treatment alone (MTT) (A431 cells [5]; PD98059 + radiation, 4-8 days): large reduction in proliferative capacity
- proliferative rate (MTT) (A431 cells [5]; PD98059 alone, 4-8 days): Decreased proliferative rate
- proliferative capacity ([3H]thymidine incorporation) (A431 cells [6]): overall dose-dependent decrease in proliferative capacity
- potentiation of apoptotic activity of ara-C (HL-60 cells [7]; PD98059 + ara-C): Potentiation of ara-C-induced apoptosis; also recorded: highly effective
- extent of apoptosis attributable to ara-C action (HL-60 cells [7]; [12]): dramatically increased
- DNA strand breakage induced by ara-C (HL-60 cells [8]): substantially increased
- inhibition of MEK1 and MEK2 (MEK1 and MEK2 [9]; general statement): all inhibit MEK1 and MEK2
- inhibition of Raf phosphorylation of MEK1 and MEK2 (MEK1 and MEK2 [9]; stated as demonstrated by the applicant): inhibiting the ability of Raf protein kinases to phosphorylate MEK1 and MEK2
- potentiation of cell death (propidium iodide staining of unfixed cells) (A431 cells [10]): large potentiation of cell death
- correlation of MAP kinase cascade inhibition with potentiation of cell death [11]: correlated with its dose-dependent ability to potentiate cell death
